Data from PMC7900708 (Biochemistry and Biophysics Reports, 2021).

Legend:
[1] = molecular target: T1, MtuUng (Mycobacterium tuberculosis uracil DNA glycosylase) (Mycobacterium tuberculosis, UniProt P9WFQ9); test: Molecular beacon fluorescence assay of MtuUng activity and inhibition; format: biochemical
T1 sequence (P9WFQ9 1-227): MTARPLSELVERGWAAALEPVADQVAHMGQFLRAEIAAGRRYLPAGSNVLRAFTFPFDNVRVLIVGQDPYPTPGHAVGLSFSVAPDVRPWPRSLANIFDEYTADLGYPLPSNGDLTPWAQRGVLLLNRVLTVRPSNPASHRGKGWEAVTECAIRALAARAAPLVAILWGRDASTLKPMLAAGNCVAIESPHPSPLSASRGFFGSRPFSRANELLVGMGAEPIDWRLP

[2] = test system: uracil DNA glycosylase; settings: cited from earlier work

`O=c1[nH]ccc(=S)[nH]1` [4-Thio-Uracil] showed an IC50 [1] of 3.57 ± 0.35 mM.

In the case of `Nc1c[nH]c(=O)[nH]c1=O` [5-Amino-Uracil], the IC50 [1] is reported as 7.18 ± 0.97 mM.

Compound `O=c1[nH]cc(Br)c(=O)[nH]1` [5-Bromo-Uracil] has an IC50 [1] of 13.6 ± 0.73 mM.

With `O=c1[nH]cc(Cl)c(=O)[nH]1` [5-Chloro-Uracil] the IC50 [1] was 8.71 ± 0.7 mM, the Ki [1] was 7.04 mM and the “type of inhibition (Lineweaver-Burk plot)” value ([1]; different inhibitor concentrations, 0.3 nM MtuUng) was “linear mixed inhibition”.

`O=c1[nH]cc(F)c(=O)[nH]1` [5-Fluoro-Uracil] showed an IC50 [1] of 50.2 ± 3.85 mM.

`O=c1[nH]cc(I)c(=O)[nH]1` [5-Iodo-Uracil] gave an IC50 [1] of 4.92 ± 0.51 mM.

For `O=[N+]([O-])c1cnc(O)nc1O` [5-Nitro-Uracil], the IC50 [1] was 10.8 ± 0.32 mM.

Compound `O=C1CC(=O)NC(=O)N1` [Barbituric acid] has an IC50 [1] of 7.29 ± 0.32 mM.

For `O=c1cc[nH]c(=O)[nH]1` [Uracil], the IC50 [1] is listed as 2.05 ± 0.3 mM and the mode of inhibition [2] is listed as “non-competitive”.
